pIC50: −log10 of the molar value. Where a name gives a salt, the structure may show the parent alone.
System: voltage-dependent calcium channels (cerebral cortex synaptosome)
Assay: Measurement of voltage-dependent calcium channel activity by the use of a fluorescent pigment (fura 2)
Type: cell-based
Details: rat cerebral cortex synaptosome, fura 2, KCl stimulation, compound incubated 10 minutes
Protocol: Measurement of Voltage-dependent Calcium Channel Activity by the use of a Fluorescent Pigment (fura 2)
Cerebral cortexes were removed from cut rat brains and disrupted roughly with scissors. These were introduced into a homogenizer, homogenized in 0.3 M saccharose and centrifuged at 4° C. (1,500 g×10 min). The resulting supernatant was further centrifuged at 4° C. (10,000 g×20 min). The resulting precipitates were suspended in 0.3 M saccharose. The suspension was layered on 0.8 M saccharose and centrifuged (10,000 g×30 min.).
4 μM fura 2/AM (Dojin Ltd.) was suspended in solution A to prepare a loading solution. To the synaptosome solution prepared in the method described above was added an equal volume of the loading solution, and the mixture was incubated for 40 minutes at room temperature.
As comparative and control compound, verapamil hydrochloride was used.

SMILES | pIC50 (Hydrochloride) | pIC50
CC(C)C(C#N)(CCN1CCN(CCOc2ccc(F)cc2)CC1)c1ccccc1 (single isomer, unassigned; (+)) [Example 78, (+)-1-[(3-Cyano-4-methyl-3-phenyl)pentyl]-4-[2-(4-fluorophenoxyl)ethyl]piperazine Hydrochloride] | 4.82 | –
N#CC(CCCN1CCN(CCOc2ccc(F)cc2)CC1)(c1ccccc1)C1CCCCC1 (single isomer, unassigned; (+)) [Example 80, (+)-1-[(4-Cyano-4-cyclohexyl-4-phenyl)butyl]-4-[2-(4-fluorophenoxyl)ethyl]piperazine Hydrochloride] | 5.42 | –
CC(C)C(C#N)(CCN1CCN(CCOc2ccc(F)cc2)CC1)c1ccccc1 (single isomer, unassigned; (-)) [Example 77, (−)-1-[(3-Cyano-4-methyl-3-phenyl)pentyl]-4-[2-(4-fluorophenoxyl)ethyl]piperazine Hydrochloride] | 5.12 | –
COc1ccc(CCN(C)CCCC(C#N)(c2ccc(OC)c(OC)c2)C(C)C)cc1OC (stereo not shown) [Control, verapamil hydrochloride, reference compound] | – | < 4.80
CC(C)C(C#N)(CCCN1CCN(CCCOc2ccc(F)cc2)CC1)c1ccccc1 (stereo not shown) [Example 2, 1-[(4-Cyano-5-methyl-4-phenyl)hexyl]-4-[3-(4-fluorophenoxy)propyl]piperazine] | – | 5.40
CC(C)C(C#N)(CCCN1CCCN(CCOc2ccc(F)cc2)CC1)c1ccccc1 (stereo not shown) [Example 3] | – | 5.32
CC(C)C(C#N)(CCN1CCCN(CCOc2ccc(F)cc2)CC1)c1ccccc1 (stereo not shown) [Example 4, 1-[(3-Cyano-4-methyl-3-phenyl)pentyl]-4-[2-(4-fluorophenoxy)ethyl]homopiperazine] | – | 5.24
CC(C)C(C#N)(CCN1CCN(CCCOc2ccc(F)cc2)CC1)c1ccccc1 (stereo not shown) [Example 5, 1-[(3-Cyano-4-methyl-3-phenyl)pentyl]-4-[3-(4-fluorophenoxy)propyl]piperazine] | – | 5.11
CC(C)C(C#N)(CCCN1CCN(CCCCOc2ccccc2)CC1)c1ccccc1 (stereo not shown) [Example 6, 1-[(4-Cyano-5-methyl-4-phenyl)hexyl]-4-(4-phenoxybutyl)piperazine] | – | 5.57
CC(C)C(C#N)(CCCN1CCN(CCOc2ccc([N+](=O)[O-])cc2)CC1)c1ccccc1 (stereo not shown) [Example 8, 1-[(4-Cyano-5-methyl-4-phenyl)hexyl]-4-[2-(4-nitrophenoxy)ethyl]piperazine] | – | 5.38
COC(=O)c1ccc(C(C#N)(CCCN2CCN(CCOc3ccc(F)cc3)CC2)C(C)C)cc1 (stereo not shown) [Example 12, 1-[4-Cyano-5-methyl-4-(4-carbomethoxyphenyl)hexyl]-4-[2-(4-fluorophenoxy)ethyl]piperazine] | – | 5.09
CC(C)C(C#N)(CCCN1CCN(CCOc2ccc(F)cc2)CC1)c1ccc(C=NO)cc1 (stereo not shown) [Example 14, 1-[4-Cyano-5-methyl-4-(4-hydroxyiminomethylphenyl)hexyl]-4-[2-(4-fluorophenoxy)ethyl]piperazine] | – | 5.06
CC(C)C(C#N)(CCCN1CCN(CCOc2ccc(F)cc2)CC1)c1ccc(C#N)cc1 (stereo not shown) [Example 15, 1-[4-Cyano-5-methyl-4-(4-cyanonphenyl)hexyl]-4-[2-(4-fluorophenoxy)ethyl]piperazine] | – | 5.01
CC(C)C(C#N)(CCCN1CCN(CCOc2ccc(F)cc2)CC1)c1ccc([N+](=O)[O-])cc1 (stereo not shown) [Example 16, 1-[4-Cyano-5-methyl-4-(4-nitrophenyl)hexyl]-4-[2-(4-fluorophenoxy)ethyl]piperazine] | – | 5.32
CC(C)C(C#N)(CCCN1CCN(CCOc2ccc(F)cc2)CC1)c1ccc(N)cc1 (stereo not shown) [Example 17, 1-[4-Cyano-5-methyl-4-(4-aminophenyl)hexyl]-4-[2-(4-fluorophenoxy)ethyl]piperazine] | – | < 4.80
CC(C)C(C#N)(CCCN1CCN(CCOc2ccc(F)cc2)CC1)c1ccc(N(C)C)cc1 (stereo not shown) [Example 19, 1-[4-Cyano-5-methyl-4-(4-dimethylaminophenyl)hexyl]-4-[2-(4-fluorophenoxy)ethyl]piperazine] | – | 5.22
